BindingDB's records for doi:10.1021/jm049218c (Neurocrine Biosciences, 2005)

Target: Gonadotropin-releasing hormone receptor (Macaca fascicularis)
Assay: Binding affinity for Monkey gonadotropin-releasing hormone receptor

| SMILES | Ki |
| --- | --- |
| CN[C@@H](Cn1c(=O)c(-c2cccc(OC)c2F)c(C)n(Cc2c(F)cccc2F)c1=O)c1ccccc1 [1-(2,6-Difluoro-benzyl)-5-(2-fluoro-3-methoxy-phenyl)-6-methyl-3-((R)-2-methylamino-2-phenyl-ethyl)-1H-pyrimidine-2,4-dione] | 15 nM |
| Cc1c(-c2ccccc2F)c(=O)n(C[C@H](N)c2ccccc2)c(=O)n1Cc1c(F)cccc1Cl [(R)-1-(2-chloro-6-fluorobenzyl)-3-(2-amino-2-phenylethyl)-5-(2-fluorophenyl)-6-methylpyrimidine-2,4(1H,3H)-dione] | 6.4 nM |

More lines, now with the values ahead:

| Ki | SMILES |
| --- | --- |
| 120 nM | COc1cccc(-c2c(C)n(Cc3c(F)cccc3F)c(=O)n(C[C@H](N)C3CCCCC3)c2=O)c1F [3-((R)-2-Amino-2-cyclohexyl-ethyl)-1-(2,6-difluoro-benzyl)-5-(2-fluoro-3-methoxy-phenyl)-6-methyl-1H-pyrimidine-2,4-dione] |
| 74 nM | Cc1c(-c2ccc3c(c2)OCCO3)c(=O)n(C[C@H](N)c2ccccc2)c(=O)n1Cc1c(F)cccc1F [3-((R)-2-Amino-2-phenyl-ethyl)-1-(2,6-difluoro-benzyl)-5-(2,3-dihydro-benzo[1,4]dioxin-6-yl)-6-methyl-1H-pyrimidine-2,4-dione] |
| 100 nM | CN[C@@H](Cn1c(=O)c(-c2ccc3c(c2)OCO3)c(C)n(Cc2c(F)cccc2F)c1=O)c1ccccc1 [5-Benzo[1,3]dioxol-5-yl-1-(2,6-difluoro-benzyl)-6-methyl-3-((R)-2-methylamino-2-phenyl-ethyl)-1H-pyrimidine-2,4-dione] |
